From PMC11476959, “Structural Insights and Catalytic Mechanism of 3-Hydroxybutyryl-CoA Dehydrogenase from Faecalibacterium Prausnitzii A2-165” (International Journal of Molecular Sciences, 2024)

Experiments:
[1] = target: 3-hydroxybutyryl-CoA dehydrogenase of Faecalibacterium prausnitzii A2-165 (Faecalibacterium prausnitzii A2-165); assay: SEC-MALS; 2.018 mg/mL A2HBD on Superdex 200 Increase, 20 mM Tris-HCl pH 8.0, 150 mM NaCl, 0.3 mL/min; main peak 92% of the scattered mass
[2] = target: T1, 3-hydroxybutyryl-CoA dehydrogenase of A2-165 (A2HBD; A2-165 BHBD) (Faecalibacterium duncaniae, UniProt C7H5K9); assay: microscale thermophoresis; type: binding
T1 construct: gene FAEPRAA2165_01580; full-length (Met1-Leu290 printed, 867 bp gene), C-terminal 6xHis kept, pET21a, E. coli BL21(DE3); hexamer in solution; N-terminus MKIGVI and C-terminus TPVDQ-LE(H6) from the printed primers; Leu290 probably comes from the XhoI site
T1 sequence (C7H5K9 entry or part of it): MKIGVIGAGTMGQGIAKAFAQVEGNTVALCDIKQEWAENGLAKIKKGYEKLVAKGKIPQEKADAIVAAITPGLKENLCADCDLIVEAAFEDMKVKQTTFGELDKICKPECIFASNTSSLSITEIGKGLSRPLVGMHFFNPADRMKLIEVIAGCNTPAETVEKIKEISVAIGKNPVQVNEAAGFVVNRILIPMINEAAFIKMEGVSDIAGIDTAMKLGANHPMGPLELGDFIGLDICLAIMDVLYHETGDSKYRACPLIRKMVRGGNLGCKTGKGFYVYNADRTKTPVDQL

stoichiometry N [1]	Kd [2]	Compound
6	–	3-hydroxybutyryl-CoA dehydrogenase of Faecalibacterium prausnitzii A2-165 (enzyme)
–	347 µM	NC(=O)c1ccc[n+]([C@@H]2O[C@H](COP(=O)(O)OP(=O)(O)OC[C@H]3O[C@@H](n4cnc5c(N)ncnc54)[C@H](O)[C@@H]3O)[C@@H](O)[C@H]2O)c1 [NAD^+]
–	23.9 µM	CC(=O)CC(=O)SCCNC(=O)CCNC(=O)[C@H](O)C(C)(C)COP(=O)(O)OP(=O)(O)OC[C@H]1O[C@@H](n2cnc3c(N)ncnc32)[C@H](O)[C@@H]1OP(=O)(O)O [acetoacetyl-CoA]
